Measured values: US20050203290A1, “Crystalline form of sucralose, and method for producing it” (priority 2003, published 2005)

Assays:
[1] = accelerated aging test (shelf life of crystalline sucralose); assay type: physicochemical
Experimental: Shelf life of crystalline sucralose is commonly estimated by performing an accelerated aging test. In this test the crystals are maintained in a controlled atmosphere at 50° C. (122° F.), and sampled periodically. Each sample is dissolved in water and the pH of a 10% solution is tracked to determine the elapsed time at which the pH drops by one unit, indicating a slight sucralose decomposition. Crystals made by traditional methods are considered stable when such decomposition is not indicated until at least 3 days in this test. This is considered equivalent to a shelf life under ambient conditions of about 8 years.

[2] = particle size analysis by light scattering (Coulter LS100Q); assay type: physicochemical; conditions: Isopar G isoparaffin fluid as dispersing medium
Experimental: Particle size analysis of the product is performed using a Coulter LS100Q Particle Size Analyzer, available from Coulter Corporation of Miami, Florida. The analyzer operates by light scattering, using Isopar™ G isoparaffin fluid, available from ExxonMobil Chemical of Houston, Tex., as the dispersing medium. The sucralose product crystals have a particle size distribution such that 90 wt. % of the sample has a particle size less than 62 μm, while 10 wt. % has a particle size less than from about 4 μm, with a mean of 30 μm.

elapsed time until pH drop under accelerated conditions ([1]; 50° C., dried at the preferred temperature, moisture levels typical of old crystals) [days]	mean particle size [2] [μm]	particle size below which 10 wt. % of the sample lies [2] [μm]	particle size below which 90 wt. % of the sample lies [2]	stability in accelerated aging test: elapsed time until pH of a 10% solution drops by one unit ([1]; crystals kept at 50° C. (122° F.) in controlled atmosphere, Example product dried at about 60° F., moisture about 0.5 wt. %)	shelf life under typical ambient storage conditions corresponding to the accelerated aging result ([1]; extrapolated from accelerated aging test at 50° C.)	Compound
3	–	–	–	–	–	OC[C@H]1O[C@H](O[C@]2(CCl)O[C@H](CCl)[C@@H](O)[C@@H]2O)[C@H](O)[C@@H](O)[C@H]1Cl [old crystals, 4,1′,6′-trichloro-4,1′,6′-trideoxygalactosucrose, reference compound]
–	30	< 4	less than 62 μm	at least 3 days	about 8 years	OC[C@H]1O[C@H](O[C@]2(CCl)O[C@H](CCl)[C@@H](O)[C@@H]2O)[C@H](O)[C@@H](O)[C@H]1Cl [sucralose product crystals, 4,1′,6′-trichloro-4,1′,6′-trideoxygalactosucrose]
